From patent US4567197A, “1,3-Dioxan-5-ylalkenoic acids” (Imperial Chemical Industries PLC, priority 1982, dated 1986) come the findings set out here.

As usually defined, the IC50 is the concentration that gives 50% inhibition. High values mean weaker potency, low ones greater potency. By pA2 is commonly meant a measure of antagonist potency on a negative log scale. The term ED50 denotes the dose at which the effect has come halfway, by size or by number of responders.

Test [1] has as its system hypertensive effects of the TXA2 mimetic U46619. Put plainly: antagonism of the hypertensive effect of U46619 in anaesthetised rats. Type of test: in vivo, rat (Alderley Park strain). Particulars: for period of significant reduction of the hypertensive effects of U46619: oral administration, dose not stated. The protocol:
Male rats (Alderley Park strain) are anaesthetised with sodium pentabarbital and blood pressure is monitored at the carotid artery. The TXA2 mimetic agent known as U46619 (e.g. R. L. Jones, et alia, in "Chemistry, Biochemistry and Pharmacological Activity of Prostanoids" eds. S. M. Roberts and F. Scheinmann, at p.211; Pergamon Press, 1979) is administered intravenously via the jugular vein and an ED50 (dose necessary to produce 50% of the maximum hypertensive effect) is established (n=3). The ED50 for U46619 is approximately 5 μg/kg. A test compound is then administered either intravenously via the jugular vein or orally via a cannula directly into the stomach and the animal challenged with an ED50 dose of U46619, five minutes after dosing with test compound and then successively every ten minutes until the hypertensive effect of U46619 is no longer blocked.

For test [2], the system named is citrated, platelet rich human plasma. The test can be described thus: blood platelet aggregation test (b), induced by arachidonic acid. The format is cell-based. Conditions: aggregation induced by sub-maximal arachidonic acid (25-100 μg/ml.). The protocol:
(§1) As stated earlier, the compounds of formula I are antagonists of one or more of the actions of TXA2, for example certain of its actions on blood platelets, the vasculature and/or the lung.
(b) a standard blood platelet aggregation test based on that described by Born (Nature, 1962, 194, 927-929) and involving measuring the inhibition by a test compound of aggregation of citrated, platelet rich human plasma induced by a sub-maximal concentration (in the range 25-100 μg/ml.) of arachidonic acid; and […]

Test [3] concerns bronchoconstriction induced in the Konzett-Rossler guinea-pig model. Put plainly: bronchoconstriction test (c), Konzett-Rossler guinea-pig model, induced by U46619. Particulars: 5 mg./kg. i.v., U46619 1-1.5 μg/kg i.v. Type of test: in vivo.
From the text: as §1
(c) a standard bronchoconstriction test involving measuring the inhibition by a test compound of the bronchoconstriction induced in the Konzett-Rossler guinea-pig model (as modified by Collier and James, Brit. J. Pharmacol., 1967, 30, 283-307) by intravenous administration of the TXA2 mimetic agent, U46619 at 1-1.5 μg/kg.

The test system of test [4] is rabbit aortal strip. The test can be described thus: rabbit aortal strip test (a), TXA2 as agonist. On the procedure:
as §1
(a) The standard rabbit aortal strip model devised by Piper and Vane (Nature, 1969, 223, 29-35) using as agonist a freshly prepared sample of TXA2, generated by addition of arachidonic acid (25 μg. to citrated, platelet rich rabbit plasma (250 μl. ) and allowing the mixture to aggregate fully over 90 seconds before use;

With `CCC1(CC)OC[C@@H](C/C=C\CCCC(=O)O)[C@@H](c2ccccc2)O1` (relative stereo) [Compound 1, 5(Z)-7-(2,2-diethyl-4-phenyl-1,3-dioxan-cis-5-yl)heptenoic acid], the “period of significant reduction of the hypertensive effects of U46619” value in test [1] is reported as “at least 60 minutes”. Regarding `O=C(O)CCC/C=C\C[C@@H]1COC2(CCCCC2)O[C@@H]1c1ccccc1` (relative stereo) [Compound 2, 5(Z)-7-(4'-phenyl-[cyclohexanespiro-2'-1,3-dioxan]-cis-5'-yl)heptenoic acid], in test [1], the “period of significant reduction of the hypertensive effects of U46619” value was “at least 60 minutes”. Same read-out and setting: as for `CC1(C)OC[C@@H](C/C=C\CCCC(=O)O)[C@@H](c2cccc(F)c2)O1` (relative stereo) [Compound 3], the entry is “at least 60 minutes”; as for `COc1ccccc1[C@H]1OC(C)(C)OC[C@H]1C/C=C\CCCC(=O)O` (relative stereo) [Compound 5, 5(Z)-7-[2,2-dimethyl-4-(2-methoxyphenyl)-1,3-dioxan-cis-5-yl]heptenoic acid], “at least 60 minutes”. The same measure, in the same setting: as for `O=C(O)CCC/C=C\C[C@@H]1CO[C@H](c2ccccc2Cl)O[C@@H]1c1ccccc1` (relative stereo) [Compound 11], the entry is “at least 60 minutes”; as for `O=C(O)CCC/C=C\C[C@@H]1CO[C@H](c2ccc(Cl)cc2)O[C@@H]1c1ccccc1` (relative stereo) [Compound 13], “at least 60 minutes”; as for `CC(C)[C@H]1OC[C@@H](C/C=C\CCCC(=O)O)[C@@H](c2ccccc2)O1` (relative stereo) [Compound 20], “at least 60 minutes”.

For the molecule `O=C(O)CCC/C=C\C[C@@H]1CO[C@H](c2ccc3c(c2)OCO3)O[C@@H]1c1ccccc1` (relative stereo) [Compound 21], the “period of significant reduction of the hypertensive effects of U46619” value in test [1] is “at least 60 minutes”. Regarding `C[C@H]1OC[C@@H](C/C=C\CCCC(=O)O)[C@@H](c2ccccc2)O1` (relative stereo) [Compound 23, 5(Z)-7-([2,4,5-cis]-2-methyl-4-phenyl-1,3-dioxan-5-yl)heptenoic acid], the “period of significant reduction of the hypertensive effects of U46619” value in test [1] is on record as “at least 60 minutes”. On the same count and under the same terms, as for `Cc1ccccc1[C@H]1OC(C)(C)OC[C@H]1C/C=C\CCCC(=O)O` (relative stereo) [Compound 24, 5(Z)-7-[2,2-dimethyl-4-(2-methylphenyl)-1,3-dioxan-cis-5-yl]heptenoic acid], the entry is “at least 60 minutes”. For the molecule `CC1(C)OC[C@@H](C/C=C\CCCC(=O)O)[C@@H](c2ccccc2)O1` (relative stereo) [Example 1, 5(Z)-7-(2,2-dimethyl-4-phenyl-1,3-dioxan-cis-5-yl)heptenoic acid], the IC50 in test [2] was about 67 µM. This molecule came in with a reduction of bronchoconstriction in test [3] of 90%. In test [4], this molecule came in with a pA2 of 6.28. As for `CCC1(CC)OC[C@@H](C/C=C\CCCC(=O)O)[C@@H](c2ccccc2)O1` (single isomer, unassigned) [Example 100, (-)-5(Z)-(2,2-diethyl-4-phenyl-1,3-dioxan-cis-5-yl)heptenoic acid], the “period of significant reduction (>30%) of the hypertensive effects of U46619” value in test [1] (oral, 50 mg./kg.) is 120 min. For the same molecule, the “reduction of the hypertensive effects of U46619” value in test [1] (oral, 50 mg./kg., for a period of 120 minutes) is given as over 30%.

For the molecule `CCCCC[C@H](O)/C=C/[C@@H]1[C@@H](C/C=C\CCCC(=O)O)[C@H]2CO[C@@H]1C2` [Example U46619, reference compound], the ED50 in test [1] (Rattus norvegicus, intravenous via jugular vein, n=3, read-out: ED50 (dose necessary to produce 50% of the maximum hypertensive effect)) is about 5 µg/kg.
